molecular target: T1, human mGlu2 receptor (Homo sapiens, UniProt Q14416); experiment: [35S]GTPγS binding assay, mGluR2 PAM; assay type: biochemical; details: GTPγS - hmGluR2 PAM pEC50, in presence of glutamate at EC20; EC50 expressed in M
T1 construct: expressed in transfected cells; host or cells: CHO cells
Protocol: [^35S]GTPγS Binding Assay
The [^35S]GTPγS binding assay is a functional membrane-based assay used to study G-protein coupled receptor (GPCR) function whereby incorporation of a non-hydrolysable form of GTP, [^35S]GTPγS (guanosine 5′-triphosphate, labelled with […] ^35S), is measured.
Cells were then collected by scraping in PBS and cell suspension was centrifuged (10 min at 4000 RPM in benchtop centrifuge). Supernatant was discarded and pellet gently resuspended in 50 mM Tris-HCl, pH 7.4 by mixing with a vortex and pipetting up and down. The suspension was centrifuged at 16,000 RPM (Sorvall RC-5C plus rotor SS-34) for 10 minutes and the supernatant discarded. The pellet was homogenized in 5 mM Tris-HCl, pH 7.4 using an ultra-turrax homogenizer and centrifuged again (18,000 RPM, 20 min, 4° C.). The final pellet was resuspended in 50 mM Tris-HCl, pH 7.4 and stored at −80° C. in appropriate aliquots before use. Protein concentration was determined by the Bradford method (Bio-Rad, USA) with bovine serum albumin as standard.
Measurement of mGluR2 positive allosteric modulatory activity of test compounds was performed as follows. Test compounds and glutamate were diluted in assay buffer containing 10 mM HEPES acid, 10 mM HEPES salt, pH 7.4, 100 mM NaCl, 3 mM MgCl2 and 10 μM GDP. Human mGlu2 receptor-containing membranes were thawed on ice and diluted in assay buffer supplemented with 14 μg/ml saponin. Membranes were pre-incubated with compound alone or together with a predefined (˜EC20) concentration of glutamate (PAM assay) for 30 min at 30° C. After addition of [^35S]GTPγS (f c. 0.1 nM), assay mixtures were shaken briefly and further incubated to allow [^35S]GTPγS incorporation on activation (30 minutes, 30° C.). Final assay mixtures contained 7 μg of membrane protein in 10 mM HEPES acid, 10 mM HEPES salt, pH 7.4, 100 mM NaCl, 3 mM MgCl2, 10 μM GDP and 2 μg/ml saponin. […] Filters were washed 6 times with ice-cold 10 mM NaH2PO4/10 mM Na2HPO4, pH 7.4. Filters were then air-dried, and 40 μl of liquid scintillation cocktail (Microscint-O) was added to each well. Membrane-bound radioactivity was counted in a Microplate Scintillation and Luminescence Counter from Perkin Elmer.
The concentration-response curves of representative compounds of the present invention—obtained in the presence of EC20 of mGluR2 agonist glutamate to determine positive allosteric modulation (PAM)—were generated using the Lexis software interface (developed at J&J). Data were calculated as % of the control glutamate response, defined as the maximal response that is generated upon addition of glutamate alone. Sigmoid concentration-response curves plotting these percentages versus the log concentration of the test compound were analyzed using non-linear regression analysis. The concentration producing half-maximal effect is then calculated as EC50.
The pEC50 values below were calculated as the −log EC50, when the EC50 is expressed in M. Emax is defined as relative maximal effect (i.e. maximal % effect relative to the control glutamate response).
All compounds were tested in presence of mGluR2 agonist glutamate at a predetermined EC20 concentration, to determine positive allosteric modulation. pEC50 values were calculated from a concentration-response experiment of at least 8 concentrations.

T1 sequence (Q14416 19-872): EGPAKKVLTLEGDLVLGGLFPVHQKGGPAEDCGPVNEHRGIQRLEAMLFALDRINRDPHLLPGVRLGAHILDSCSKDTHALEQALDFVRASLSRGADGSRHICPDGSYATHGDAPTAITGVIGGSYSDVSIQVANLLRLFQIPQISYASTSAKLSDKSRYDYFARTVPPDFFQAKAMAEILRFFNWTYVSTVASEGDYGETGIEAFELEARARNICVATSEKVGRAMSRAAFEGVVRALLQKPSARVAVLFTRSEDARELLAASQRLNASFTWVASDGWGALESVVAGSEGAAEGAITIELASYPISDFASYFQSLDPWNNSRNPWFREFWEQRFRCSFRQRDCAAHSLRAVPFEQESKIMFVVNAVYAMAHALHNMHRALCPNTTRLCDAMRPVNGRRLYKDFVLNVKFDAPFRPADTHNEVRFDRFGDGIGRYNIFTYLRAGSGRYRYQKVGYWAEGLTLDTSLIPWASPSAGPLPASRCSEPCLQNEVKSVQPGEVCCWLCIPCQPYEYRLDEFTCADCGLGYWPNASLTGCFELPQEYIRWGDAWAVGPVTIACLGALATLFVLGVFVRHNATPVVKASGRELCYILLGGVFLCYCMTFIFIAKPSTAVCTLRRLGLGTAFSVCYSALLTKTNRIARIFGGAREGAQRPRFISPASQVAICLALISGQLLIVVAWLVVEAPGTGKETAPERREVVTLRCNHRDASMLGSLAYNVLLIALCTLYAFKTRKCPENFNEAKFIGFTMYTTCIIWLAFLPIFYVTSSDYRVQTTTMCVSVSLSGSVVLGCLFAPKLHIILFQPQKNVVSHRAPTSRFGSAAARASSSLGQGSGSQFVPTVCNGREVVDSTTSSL

| Structure (SMILES) | EC50 |
| --- | --- |
| CCOCc1nnc2c(C(F)(F)F)c(C(C)Oc3c(F)cc(F)cc3F)ccn12 (single isomer, unassigned) [Compound 22, 3-(Ethoxymethyl)-8-(trifluoromethyl)-7-[(1*R)-1-(2,4,6-trifluorophenoxy)ethyl][1,2,4]triazolo[4,3-a]pyridine] | 24.5 nM |
| CC(Oc1ccc(F)cc1F)c1ccn2c(CC3CCC3)nnc2c1C(F)(F)F (single isomer, unassigned) [Compound 17, 3-(Cyclobutylmethyl)-7-[(1*R)-1-(2,4-difluorophenoxy)ethyl]-8-(trifluoromethyl)[1,2,4]triazolo[4,3-a]pyridine] | 18.6 nM |
| CC(Oc1ccc(F)cc1F)c1ccn2c(CC3CCC3)nnc2c1C(F)(F)F (centres unmarked) [Compound 16, 3-(Cyclobutylmethyl)-7-[1-(2,4-difluorophenoxy)ethyl]-8-(trifluoromethyl)[1,2,4]triazolo[4,3-a]pyridine] | 28.8 nM |
| CC(Oc1ccc(F)cc1F)c1ccn2c(CC3CCC3)nnc2c1C(F)(F)F (single isomer, unassigned) [Compound 18, 3-(Cyclobutylmethyl)-7-[(1*S)-1-(2,4-difluorophenoxy)ethyl]-8-(trifluoromethyl)[1,2,4]triazolo[4,3-a]pyridine] | 575 nM |
| CCOCc1nnc2c(C(F)(F)F)c(C(C)Oc3c(F)cc(F)cc3F)ccn12 (single isomer, unassigned) [Compound 23, 3-(Ethoxymethyl)-8-(trifluoromethyl)-7-[(1*S)-1-(2,4,6-trifluorophenoxy)ethyl][1,2,4]triazolo[4,3-a]pyridine] | 1150 nM |

same assay, conditions: in presence of glutamate at EC20; EC50 expressed in M; read-out: GTPγS - hmGluR2 PAM pEC50 (converted)

| Structure (SMILES) | EC50 |
| --- | --- |
| Cc1cc(F)ccc1O[C@@H](C)c1ccn2c(CC3CC3)nnc2c1C(F)(F)F [Compound 14, 3-(Cyclopropylmethyl)-7-[(1 S)-1-(4-fluoro-2-methylphenoxy)ethyl]-8-(trifluoromethyl)[1,2,4]triazolo[4,3-a]pyridine] | 29.5 nM |
| C[C@H](Oc1c(F)cc(F)cc1F)c1ccn2c(CC3CC3)nnc2c1C(F)(F)F [Compound 15, 3-(Cyclopropylmethyl)-8-(trifluoromethyl)-7-[(1S)-1-(2,4,6-trifluorophenoxy)ethyl][1,2,4]triazolo[4,3-a]pyridine] | 6.92 nM |
| CCOCc1nnc2c(C(F)(F)F)c(C(C)Oc3ccc(F)cc3F)ccn12 (centres unmarked) [Compound 19, 7-[1-(2,4-Difluorophenoxy)ethyl]-3-(ethoxymethyl)-8-(trifluoromethyl)[1,2,4]triazolo[4,3-a]pyridine] | 195 nM |
| C[C@H](Oc1cc(F)cc(F)c1)c1ccn2c(CC3CC3)nnc2c1C(F)(F)F [Compound 7, 3-(Cyclopropylmethyl)-7-[(1S)-1-(3,5-difluorophenoxy)ethyl]-8-(trifluoromethyl)[1,2,4]triazolo[4,3-a]pyridine] | 49 nM |
| CCOCc1nnc2c(C(F)(F)F)c(C(C)Oc3ccc(F)cc3F)ccn12 (single isomer, unassigned) [Compound 21, 7-[(1*S)-1-(2,4-Difluorophenoxy)ethyl]-3-(ethoxymethyl)-8-(trifluoromethyl)[1,2,4]triazolo[4,3-a]pyridine] | 479 nM |
| C[C@H](Oc1cc(F)ccc1F)c1ccn2c(CC3CC3)nnc2c1C(F)(F)F [Compound 10, 3-(Cyclopropylmethyl)-7-[(1S)-1-(2,5-difluorophenoxy)ethyl]-8-(trifluoromethyl)[1,2,4]triazolo[4,3-a]pyridine] | 33.9 nM |
| CC(Oc1ccc(F)cc1)c1ccn2c(CC3CC3)nnc2c1C(F)(F)F (single isomer, unassigned) [Compound 2, 3-(Cyclopropylmethyl)-7-[(1*R)-1-(4-fluorophenoxy)ethyl]-8-(trifluoromethyl)[1,2,4]triazolo[4,3-a]pyridine] | 145 nM |
| COc1cc(F)ccc1O[C@@H](C)c1ccn2c(CC3CC3)nnc2c1C(F)(F)F [Compound 12, 3-(Cyclopropylmethyl)-7-[(1S)-1-(4-fluoro-2-methoxyphenoxy)ethyl]-8-(trifluoromethyl)[1,2,4]triazolo[4,3-a]pyridine] | 102 nM |
| CCCc1nnc2c(C(F)(F)F)c(C(C)Oc3ccc(F)cc3F)ccn12 (single isomer, unassigned) [Compound 32] | 1950 nM |
| CC(Oc1ccc(F)cc1F)c1ccn2c(CC3CC3)nnc2c1C(F)(F)F (centres unmarked) [Compound 4, 3-(Cyclopropylmethyl)-7-[1-(2,4-difluorophenoxy)ethyl]-8-(trifluoromethyl)[1,2,4]triazolo[4,3-a]pyridine] | 91.2 nM |
| CC(Oc1ccc(F)cc1)c1ccn2c(CC3CC3)nnc2c1C(F)(F)F (single isomer, unassigned) [Compound 3, 3-(Cyclopropylmethyl)-7-[(1*S)-1-(4-fluorophenoxy)ethyl]-8-(trifluoromethyl)[1,2,4]triazolo[4,3-a]pyridine] | 1620 nM |
| CCCc1nnc2c(C(F)(F)F)c(C(C)Oc3ccc(F)cc3F)ccn12 (single isomer, unassigned) [Compound 31] | 89.1 nM |
| C[C@@H](Oc1ccc(F)cc1F)c1ccn2c(CC3CC3)nnc2c1C(F)(F)F [Compound 5, 3-(Cyclopropylmethyl)-7-[(1R)-1-(2,4-difluorophenoxy)ethyl]-8-(trifluoromethyl)[1,2,4]triazolo[4,3-a]pyridine] | 871 nM |
| CCOCc1nnc2c(C(F)(F)F)c(C(C)Oc3ccc(F)cc3F)ccn12 (single isomer, unassigned) [Compound 20, 7-[(1*R)-1-(2,4-Difluorophenoxy)ethyl]-3-(ethoxymethyl)-8-(trifluoromethyl)[1,2,4]triazolo[4,3-a]pyridine] | 85.1 nM |
| C[C@H](Oc1c(F)cccc1F)c1ccn2c(CC3CC3)nnc2c1C(F)(F)F [Compound 11, 3-(Cyclopropylmethyl)-7-[(1S)-1-(2,6-difluorophenoxy)ethyl]-8-(trifluoromethyl)[1,2,4]triazolo[4,3-a]pyridine] | 5.62 nM |
| Cc1ccc(O[C@@H](C)c2ccn3c(CC4CC4)nnc3c2C(F)(F)F)c(Cl)c1 [Compound 13, 7-[(1S)-1-(2-Chloro-4-methylphenoxy)ethyl]-3-(cyclopropylmethyl)-8-(trifluoromethyl)[1,2,4]triazolo[4,3-a]pyridine] | 17.8 nM |
| CCCc1nnc2c(C(F)(F)F)c(C(C)Oc3ccc(F)cc3F)ccn12 (centres unmarked) [Compound 30, 7-[1-(2,4-Difluorophenoxy)ethyl]-3-propyl-8-(trifluoromethyl)[1,2,4]triazolo[4,3-a]pyridine] | 126 nM |
| C[C@H](Oc1cccc(F)c1F)c1ccn2c(CC3CC3)nnc2c1C(F)(F)F [Compound 9, 3-(Cyclopropylmethyl)-7-[(1S)-1-(2,3-difluorophenoxy)ethyl]-8-(trifluoromethyl)[1,2,4]triazolo[4,3-a]pyridine] | 50.1 nM |
| C[C@H](Oc1ccc(F)c(F)c1)c1ccn2c(CC3CC3)nnc2c1C(F)(F)F [Compound 8, 3-(Cyclopropylmethyl)-7-[(1S)-1-(3,4-difluorophenoxy)ethyl]-8-(trifluoromethyl)[1,2,4]triazolo[4,3-a]pyridine] | 91.2 nM |
| CC(Oc1ccc(F)cc1)c1ccn2c(CC3CC3)nnc2c1C(F)(F)F (centres unmarked) [Compound 1, 3-(Cyclopropylmethyl)-7-[1-(4-fluorophenoxy)ethyl]-8-(trifluoromethyl)[1,2,4]triazolo[4,3-a]pyridine] | 257 nM |

same assay, conditions: maximal % effect relative to the control glutamate response; glutamate at EC20

| Structure (SMILES) | GTPγS - hmGluR2 PAM Emax |
| --- | --- |
| CC(Oc1ccc(F)cc1F)c1ccn2c(CC3CCC3)nnc2c1C(F)(F)F (single isomer, unassigned) [Compound 18, 3-(Cyclobutylmethyl)-7-[(1*S)-1-(2,4-difluorophenoxy)ethyl]-8-(trifluoromethyl)[1,2,4]triazolo[4,3-a]pyridine] | 213% |

same assay, conditions: read-out: GTPγS - hmGluR2 PAM Emax, maximal % effect relative to the control glutamate response; glutamate at EC20

| Structure (SMILES) | Emax |
| --- | --- |
| CCOCc1nnc2c(C(F)(F)F)c(C(C)Oc3ccc(F)cc3F)ccn12 (centres unmarked) [Compound 19, 7-[1-(2,4-Difluorophenoxy)ethyl]-3-(ethoxymethyl)-8-(trifluoromethyl)[1,2,4]triazolo[4,3-a]pyridine] | 297% |
| CC(Oc1ccc(F)cc1F)c1ccn2c(CC3CCC3)nnc2c1C(F)(F)F (single isomer, unassigned) [Compound 17, 3-(Cyclobutylmethyl)-7-[(1*R)-1-(2,4-difluorophenoxy)ethyl]-8-(trifluoromethyl)[1,2,4]triazolo[4,3-a]pyridine] | 317% |
| CC(Oc1ccc(F)cc1F)c1ccn2c(CC3CCC3)nnc2c1C(F)(F)F (centres unmarked) [Compound 16, 3-(Cyclobutylmethyl)-7-[1-(2,4-difluorophenoxy)ethyl]-8-(trifluoromethyl)[1,2,4]triazolo[4,3-a]pyridine] | 284% |
